Source: ChEMBL document CHEMBL1201862, “PubChem BioAssay data set” (2004)
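Values below derive from 48-hour exposures of cells grown in 96-well plates, with endpoints linearly interpolated between the two concentrations bracketing the appropriate inhibition level. Here, GI50 denotes the concentration required for 50% inhibition of growth.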 Activity calls are given as the source filed them. No stated cut-off is given here; in the data, active = GI50 up to about 1.1 µM and inactive = higher.

Tests used:
Experiment in all cases: NCI tumour cell line growth inhibition, 48 h
CCRF-CEM = test system: CCRF-CEM
A549 = test system: A549
Hs-578T = test system: Hs-578T
PC-3 = test system: PC-3
SK-MEL-2 = test system: SK-MEL-2
NCI/ADR-RES = test system: NCI/ADR-RES
M14 = test system: M14
NCI-H226 = test system: NCI-H226
A498 = test system: A498
CAKI-1 = test system: CAKI-1
NCI-H522 = test system: NCI-H522
OVCAR-8 = test system: OVCAR-8
Malme-3M = test system: Malme-3M
NCI-H460 = test system: NCI-H460
MDA-N = test system: MDA-N
LOX IMVI = test system: LOX IMVI
HOP-92 = test system: HOP-92

Structure (SMILES)	GI50 (CCRF-CEM)	GI50 (A549)	GI50 (Hs-578T)	GI50 (PC-3)	GI50 (SK-MEL-2)	GI50 (NCI/ADR-RES)	GI50 (M14)	GI50 (NCI-H226)	GI50 (A498)	GI50 (CAKI-1)	GI50 (NCI-H522)	GI50 (OVCAR-8)	GI50 (Malme-3M)	GI50 (NCI-H460)	GI50 (MDA-N)	GI50 (LOX IMVI)	GI50 (HOP-92)
O=C1Nc2ccccc2/C1=N/Nc1ccccc1Cl	45.9 µM (inactive)	45.7 µM (inactive)	22.3 µM (inactive)	> 100 µM (inactive)	63.5 µM (inactive)	44.6 µM (inactive)	96.2 µM (inactive)	53.2 µM (inactive)	18.7 µM (inactive)	15.7 µM (inactive)	37.8 µM (inactive)	20.6 µM (inactive)	77.3 µM (inactive)	18.2 µM (inactive)	95.5 µM (inactive)	69 µM (inactive)	
Cc1cc(C)c(O)c(Cc2cccc(Cc3cc(C)cc(C)c3O)c2O)c1	35.5 µM (inactive)	> 100 µM (inactive)	> 100 µM (inactive)	> 100 µM (inactive)	> 100 µM (inactive)	> 100 µM (inactive)	> 100 µM (inactive)		> 100 µM (inactive)	> 100 µM (inactive)	> 100 µM (inactive)	> 100 µM (inactive)	> 100 µM (inactive)	> 100 µM (inactive)	> 100 µM (inactive)	> 100 µM (inactive)	> 100 µM (inactive)
COc1cccc2c1-c1c(OC)cccc1SS2		14.4 µM (inactive)	26.1 µM (inactive)	32.5 µM (inactive)	17.5 µM (inactive)	36.6 µM (inactive)	27 µM (inactive)	16 µM (inactive)	8.75 µM (inactive)	25.2 µM (inactive)	19.7 µM (inactive)	25.9 µM (inactive)	18.1 µM (inactive)	18.2 µM (inactive)	2.67 µM (inactive)	10.7 µM (inactive)	19.9 µM (inactive)
Cc1nn(C(=O)c2ccncc2)c2c1C(c1ccccc1O)SC(=N)N2 (centres undefined)	> 10 µM (inactive)	> 10 µM (inactive)	> 10 µM (inactive)	> 10 µM (inactive)	> 10 µM (inactive)	> 10 µM (inactive)	> 10 µM (inactive)	> 10 µM (inactive)		> 10 µM (inactive)	> 10 µM (inactive)	> 10 µM (inactive)	> 10 µM (inactive)	> 10 µM (inactive)	> 10 µM (inactive)	> 10 µM (inactive)	> 10 µM (inactive)
O=C(Nc1ccc(Cl)cc1)c1cc(S(=O)(=O)Nc2n[nH]c(=O)[nH]2)c(SSc2cc(Cl)c(C(=O)Nc3ccc(Cl)cc3)cc2S(=O)(=O)Nc2n[nH]c(=O)[nH]2)cc1Cl	> 100 µM (inactive)	> 100 µM (inactive)	> 100 µM (inactive)	> 100 µM (inactive)	> 100 µM (inactive)	> 100 µM (inactive)	> 100 µM (inactive)	> 100 µM (inactive)	> 100 µM (inactive)	> 100 µM (inactive)	> 100 µM (inactive)	> 100 µM (inactive)	> 100 µM (inactive)	> 100 µM (inactive)	> 100 µM (inactive)	> 100 µM (inactive)	> 100 µM (inactive)
COc1cc2c(cc1O)C1Cc3ccc(OC)c(O)c3C(C2)N1C (centres undefined)	> 100 µM (inactive)	> 100 µM (inactive)	42.8 µM (inactive)	90.8 µM (inactive)	> 100 µM (inactive)	> 100 µM (inactive)	> 100 µM (inactive)	> 100 µM (inactive)	> 100 µM (inactive)	> 100 µM (inactive)	> 100 µM (inactive)	> 100 µM (inactive)	> 100 µM (inactive)	94 µM (inactive)	> 100 µM (inactive)	> 100 µM (inactive)	17.5 µM (inactive)
CCSC1=N/C(=C/c2ccccc2O)C(=O)N1	> 100 µM (inactive)	> 100 µM (inactive)	33.7 µM (inactive)	> 100 µM (inactive)	> 100 µM (inactive)	45.5 µM (inactive)	> 100 µM (inactive)	31.9 µM (inactive)		> 100 µM (inactive)	> 100 µM (inactive)	41.9 µM (inactive)	> 100 µM (inactive)	> 100 µM (inactive)	> 100 µM (inactive)	52 µM (inactive)	89.1 µM (inactive)
CC(=O)O[C@H]1[C@@H](OC2CCCC2(c2ccccc2)c2ccccc2)O[N+]([O-])=C[C@@H]1c1ccccc1 (some centres undefined)	3.19 µM (inactive)	9.33 µM (inactive)	6.53 µM (inactive)	8.24 µM (inactive)	8.57 µM (inactive)	5.42 µM (inactive)	6.18 µM (inactive)	20.7 µM (inactive)	8.22 µM (inactive)	4.85 µM (inactive)	1.26 µM (inactive)	2.47 µM (inactive)		17.9 µM (inactive)	4.94 µM (inactive)	2.1 µM (inactive)	5.92 µM (inactive)
O=C1/C(=C/c2ccco2)NC(=S)N1CN1CCCCC1	21.8 µM (inactive)	> 100 µM (inactive)	83.6 µM (inactive)	> 100 µM (inactive)	> 100 µM (inactive)	10.5 µM (inactive)	99.3 µM (inactive)	54.1 µM (inactive)	> 100 µM (inactive)		> 100 µM (inactive)	43.7 µM (inactive)	85.5 µM (inactive)		> 100 µM (inactive)	33.7 µM (inactive)	> 100 µM (inactive)
CSC(=S)Nc1cc(C)ccn1	> 100 µM (inactive)	> 100 µM (inactive)	> 100 µM (inactive)	> 100 µM (inactive)	93.5 µM (inactive)	60.5 µM (inactive)	> 100 µM (inactive)	> 100 µM (inactive)		> 100 µM (inactive)	40.7 µM (inactive)	> 100 µM (inactive)	61.4 µM (inactive)	85.9 µM (inactive)	> 100 µM (inactive)	> 100 µM (inactive)	79.3 µM (inactive)
CCOc1ccc2nc3cc(/N=N/c4ccc(N)nc4N)ccc3c(N)c2c1	0.136 µM (active)	15 µM (inactive)	3.13 µM (inactive)	3.57 µM (inactive)	2.1 µM (inactive)	> 88.1 µM (inactive)	20 µM (inactive)	21.7 µM (inactive)	8.89 µM (inactive)	36.4 µM (inactive)	2.99 µM (inactive)	2.73 µM (inactive)	4.45 µM (inactive)	21.3 µM (inactive)	2.24 µM (inactive)	0.419 µM (active)	9.06 µM (inactive)
CC(=O)NC(Cc1ccc(OP(=O)(OCc2ccc([N+](=O)[O-])o2)N(C)CCCCCl)cc1)C(=O)NC(C)c1ccc(OCC2CCCCC2)c(C(N)=O)c1 (centres undefined)	1.33 µM (inactive)	4.12 µM (inactive)	2.14 µM (inactive)	2.79 µM (inactive)	3.08 µM (inactive)	31.2 µM (inactive)	2.22 µM (inactive)	5.94 µM (inactive)	18.9 µM (inactive)	21.3 µM (inactive)	3.73 µM (inactive)	7.48 µM (inactive)	1.88 µM (inactive)	3.44 µM (inactive)	2.24 µM (inactive)	1.97 µM (inactive)	
CC(C)C1=CCC2C(=C1)CCC1C(C)(C(=O)O)CCCC21C (centres undefined)	> 100 µM (inactive)	> 100 µM (inactive)	> 100 µM (inactive)	> 100 µM (inactive)	> 100 µM (inactive)	76.2 µM (inactive)	> 100 µM (inactive)	> 100 µM (inactive)	> 100 µM (inactive)	> 100 µM (inactive)	> 100 µM (inactive)	> 100 µM (inactive)	> 100 µM (inactive)		> 100 µM (inactive)	> 100 µM (inactive)	> 100 µM (inactive)
COc1ccc(/C=C2\N/C(=N/N)N=C2Cl)cc1	> 100 µM (inactive)	> 100 µM (inactive)	> 100 µM (inactive)	> 100 µM (inactive)	> 100 µM (inactive)	> 100 µM (inactive)	> 100 µM (inactive)	> 100 µM (inactive)	> 100 µM (inactive)	> 100 µM (inactive)	> 100 µM (inactive)	> 100 µM (inactive)	> 100 µM (inactive)		> 100 µM (inactive)	> 100 µM (inactive)	> 100 µM (inactive)
C#CCOC(=O)C(N)CS (centres undefined)	> 100 µM (inactive)	> 100 µM (inactive)	> 100 µM (inactive)	> 100 µM (inactive)	> 100 µM (inactive)	> 100 µM (inactive)	> 100 µM (inactive)	> 100 µM (inactive)	> 100 µM (inactive)	> 100 µM (inactive)	> 100 µM (inactive)	> 100 µM (inactive)	> 100 µM (inactive)		> 100 µM (inactive)	> 100 µM (inactive)	> 100 µM (inactive)
O=[N+]([O-])C(=C(NCc1ccccc1)NCc1ccccc1)C(Cl)=C(Cl)Cl	23.1 µM (inactive)	42.7 µM (inactive)	49.2 µM (inactive)	32.1 µM (inactive)		45.1 µM (inactive)	26 µM (inactive)	39.5 µM (inactive)	61.7 µM (inactive)	10.7 µM (inactive)	37 µM (inactive)	36.6 µM (inactive)	19 µM (inactive)	37.5 µM (inactive)	25.2 µM (inactive)	17.4 µM (inactive)	37.3 µM (inactive)
CN(C)Cc1cc(C(=O)/C=C/c2ccc(Cl)cc2Cl)cc(CN(C)C)c1O	2.16 µM (inactive)	2.89 µM (inactive)	3.82 µM (inactive)	1.65 µM (inactive)		1.75 µM (inactive)	2.75 µM (inactive)	8.57 µM (inactive)	2.4 µM (inactive)	2.36 µM (inactive)	2.56 µM (inactive)	2.33 µM (inactive)	8.85 µM (inactive)	1.46 µM (inactive)	1.88 µM (inactive)	1.2 µM (inactive)	3.94 µM (inactive)
